# Results reported in PubChem BioAssay AID1648 (Sanford-Burnham Center for Chemical Genomics, 2009).
# Calls of active or inactive are those of the source. No rule for the calls is given here.
# Target: Serine/threonine-protein kinase mTOR (Homo sapiens) (UniProt P42345)
# Assay: mTOR FRB domain ligand binding – biophysical, NMR (AID 1648)
# Details: NMR binding to FRB domain, chemical shift
# Chain of Serine/threonine-protein kinase mTOR (Homo sapiens) (P42345 2015-2114): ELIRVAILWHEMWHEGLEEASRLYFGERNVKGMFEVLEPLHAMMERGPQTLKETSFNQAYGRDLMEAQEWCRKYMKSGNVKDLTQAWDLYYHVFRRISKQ
row,Structure (SMILES),Kd
1,O=c1sc2ccccc2n1CN1CCOCC1,> 4 mM (inactive)
2,C=C1C2CC[C@@]3(C)[C@H](c4ccoc4)OC(=O)C[C@]13O[C@H]1CC(=O)C(C)(C)[C@H](C(O)C(=O)OC)[C@@]21C (stereo not given in full),> 4 mM (inactive)
3,N/N=C1\CCCc2c1no[n+]2[O-],> 4 mM (inactive)
4,COc1ccc2cc3[n+](cc2c1OC)CCc1cc2c(cc1-3)OCO2,> 4 mM (inactive)
5,O=C1Cc2ccccc2N1c1ccccc1,> 4 mM (inactive)
6,CC(=O)Oc1cc2c(c(C)c1OC(C)=O)CC=C1[C@@]2(C)CC[C@@]2(C)C3C[C@](C)(C(=O)O)CC[C@]3(C)CC[C@]12C (stereo not given in full),> 4 mM (inactive)
7,NC(=O)C12CC3CC(C1)C(=O)C(C3)C2,> 4 mM (inactive)
8,O=c1c2ccccc2oc2ccc(O)cc12,> 4 mM (inactive)
9,CCOCC(=O)N1CCc2ccccc21,> 4 mM (inactive)
10,c1ccc(-n2nnnc2Oc2cccc3cccnc23)cc1,> 4 mM (inactive)
11,Cc1cc(C)nc(N2CC(=O)N(C)C2=N)n1,> 4 mM (inactive)
12,COc1cc(/C=C2\SC(=S)NC2=O)ccc1O,> 4 mM (inactive)
13,O=C(Nc1ccc(N2CCCC2=O)cc1)c1cccc(F)c1,> 4 mM (inactive)
14,CC(=O)CC1(O)C(=O)Nc2ccc(Br)cc21 (stereo not given),> 4 mM (inactive)
15,CC1(C)N=C2C(=N)C=CC=C2N1O,> 4 mM (inactive)
16,Cc1cc(C(=O)Nc2ccon2)cs1,> 4 mM (inactive)
17,CS(=O)(=O)NN=C1CCCCC1,> 4 mM (inactive)
18,CSc1cc(C)[nH]c(=O)n1,> 4 mM (inactive)
19,O=C(O)c1cccnc1N1CCCC1,> 4 mM (inactive)
20,OCC1COc2ccccc2C1 (stereo not given),> 4 mM (inactive)

row,Structure (SMILES),Kd
1,C[C@H]1O[C@@H](O[C@H]2[C@@H](O)C[C@H](O[C@H]3[C@@H](O)C[C@H](O[C@H]4CC[C@]5(C)C6C[C@@H](O)[C@]7(C)[C@@H](C8=CC(=O)OC8)CC[C@]7(O)C6CC[C@@H]5C4)O[C@@H]3C)O[C@@H]2C)C[C@H](O)[C@@H]1O (stereo not given in full),> 4 mM (inactive)
2,O=C(O)C1CN(Cc2ccccc2)CCO1 (stereo not given),> 4 mM (inactive)
3,COC(=O)c1cncc(C(=O)OC)c1,> 4 mM (inactive)
4,O=C(O)CCSc1nc2ccccc2s1,> 4 mM (inactive)
5,O=C(Nc1nc2ccccc2s1)c1ccc(=O)[nH]n1,> 4 mM (inactive)
6,Oc1cc(O)c2c(c1)O[C@H](c1ccc(O)c(O)c1)[C@@H](O)C2,> 4 mM (inactive)
7,NC(=O)c1ccc(N=Cc2ccc[nH]2)cc1,> 4 mM (inactive)
8,O=C(O)CCC(=O)c1c[nH]c2ccccc12,> 4 mM (inactive)
9,CN1C(=O)Cc2cc(S(N)(=O)=O)ccc21,> 4 mM (inactive)
10,COc1cc(C(=O)NCC2CCCO2)cc(OC)c1OC (stereo not given),> 4 mM (inactive)
11,Cc1[nH]c2ccccc2c1CN(C)C,> 4 mM (inactive)
12,NCc1ccc(CN2CCOCC2)cc1,> 4 mM (inactive)
13,O=C(CC1NC(=O)NC1=O)Nc1ccccc1 (stereo not given),> 4 mM (inactive)
14,O=c1[nH]c2c(c(=O)n1C1CCCCC1)CCC2,> 4 mM (inactive)
15,NC1=NC(=O)/C(=C\c2cccc(C(=O)O)c2)S1,> 4 mM (inactive)
16,O=C(c1ccccc1)c1ccccc1C(=O)N1CCCC1,> 4 mM (inactive)
17,COC(=O)/C(C)=C\CC12OC(C)(C)C3CC(C=C4C(=O)c5c(OC)c6c(c(CC=C(C)C)c5OC431)OC(C)(CCC=C(C)C)C=C6)C2=O (stereo not given),> 4 mM (inactive)
18,Fc1ccc(F)c(CN2CCN(c3ncccn3)CC2)c1,> 4 mM (inactive)
19,CC(=O)OCc1cc(=O)n(C)c(=O)n1C,> 4 mM (inactive)
20,Nc1n[nH]c(=S)n1-c1ccccc1,> 4 mM (inactive)

row,Structure (SMILES),Kd
1,S=C(Nc1ccc2nccnc2c1)N1CCOCC1,> 4 mM (inactive)
2,O=C1NCCCC1C(=O)N1CCCCC1 (stereo not given),> 4 mM (inactive)
3,O=C(Nc1cccc(C(F)(F)F)c1)c1cccnc1,> 4 mM (inactive)
4,CSc1nc2cc(F)c(F)cc2n1C,> 4 mM (inactive)
5,Nc1ncnc2c1ncn2CCN1CCOCC1,> 4 mM (inactive)
6,c1ccc(-c2noc(-c3ccc4c(c3)OCO4)n2)nc1,> 4 mM (inactive)
7,Nc1ccc2nccnc2c1,> 4 mM (inactive)
8,CCc1noc(C)c1C(=O)Nc1ncc(C)s1,> 4 mM (inactive)
9,Cc1ccccc1NC(=O)C1CC(=O)N=C(N)S1 (stereo not given),> 4 mM (inactive)
10,CC(=O)n1c(N)nc2ccccc21,> 4 mM (inactive)
11,O=C(NC12CC3CC(CC(C3)C1)C2)c1cnccn1,> 4 mM (inactive)
12,O=C(NCC1CCNCC1)c1ccncc1,> 4 mM (inactive)
13,c1ccc(-c2noc(-c3ccco3)n2)nc1,> 4 mM (inactive)
14,O=C(O)c1cnc2sc3ccccc3n2c1=O,> 4 mM (inactive)
15,c1csc(-c2nnc3ccccn23)c1,> 4 mM (inactive)
16,COC(=O)c1cccs1,> 4 mM (inactive)
17,OC[C@@H]1CCCN2CCCC[C@H]12,> 4 mM (inactive)
18,NC(=O)CSc1nnc(-c2cccnc2)o1,> 4 mM (inactive)
19,COc1cc(C/C=C/c2ccccc2)c(OC)cc1O,> 4 mM (inactive)
20,NC1=NC(=O)/C(=C/c2cccc([N+](=O)[O-])c2)S1,> 4 mM (inactive)
